Laboratory results from patent US4684647A, “Anti-bacterial pyrido-benzothiazine derivative and pharmaceutical composition therefor” (priority 1984, dated 1987).
In brackets after ≈: the same amount, converted by molar mass.

Experiments:
[1] = preliminary pharmacokinetic tests in dogs, oral; format: in vivo; conditions: dog, 20 mg/kg per os
Source text: Preliminary tests performed in dogs with the compound (h) have given still better results than the tests performed in rats.

[2] = tissue levels by HPLC after oral administration to rats; format: in vivo; conditions: rat; for concentration at 0.5 h / concentration at 1 h / concentration at 2 h / concentration at 4 h / concentration at 8 h / concentration at 15 h: 50 mg/kg oral; for Cmax: po
[3] = plasma levels by HPLC after intraperitoneal and oral administration to rats; format: in vivo; conditions: rat; for concentration at 0.5 h: 0.50 h; for concentration at 0.5 h / concentration at 1 h / concentration at 2 h / concentration at 4 h / concentration at 8 h / concentration at 15 h: read-out: Plasma level
Experimental: We give hereinafter in Table 2 the haematic levels of compound (h) as measured in plasma by HPLC. Each value is the average of three tested rats.
More precisely in FIG. 1 the plasma levels in rats versus the time, are reported, after i.p. administration of 10 mg/kg and 25 mg/kg of compound (h), while in FIG. 2 the plasma levels are reported of compound (h) in rats, versus the time, after oral administration of 25, 50 and 100 mg/kg of said compound.

Citrobacter = experiment: MIC in agar, Citrobacter; format: cell-based; conditions: Isosensitest agar, 10^4 CFU, 24 h, 37° C., read-out: MIC, G = Citrobacter
Experimental: (§1) The antibacterial activity (minimum inhibiting concentration, MIC) of the compounds according to the invention has been determined in agar, by adding the compound under evaluation at concentrations of from 0.1 to 100 meg/ml by means of a "multipoint inoculator" (Denley Techn. Ltd., England); the medium used was Isosensitest agar (Oxoid); the bacterial inoculate was 10^4 colony forming unity (CFU) per inoculation point. The reading of the results was done after 24 hour-incubation in thermostat at 37° C.
(§2) The MIC was defined as the lowest concentration of chemotherapeutic agent still capable of totally inhibiting the growth of bacteria, as detected from a lack of colony development in the inoculation point.
(§3) The microorganisms used for evaluating the activity of the specific compounds have been: Escherichia coli, Klebsiella P., Enterobacter, Serratia, Citrobacter, Proteus (+), Salmonella, Pseudomonas, Staphylococcus. All the compounds according to the present invention are provided with antibacterial activity against one or more microorganism(s) among those above mentioned. Some of such compounds are absorbed after having been administered orally to the animals, and are particularly useful as disinfectants of the urinary tract in that they are excreted in a high percentage (50-70% over 24 hours after the administration of 50 mg/kg per os) as such, and in metabolic active form, through the urine.

Escherichia coli (981) = experiment: MIC in agar, Escherichia coli (981); format: cell-based; conditions: Isosensitest agar, 10^4 CFU, 24 h, 37° C.
Experimental: as §1, §2, §3
A = Escherichia coli (981)

Klebsiella pneumoniae = experiment: MIC in agar, Klebsiella pneumoniae; format: cell-based; conditions: Isosensitest agar, 10^4 CFU, 24 h, 37° C., read-out: MIC, E = Klebsiella pneumoniae
Experimental: as §1, §2, §3
E = Klebsiella pneumoniae

Staphylococcus aureus = experiment: MIC in agar, Staphylococcus aureus; format: cell-based; conditions: Isosensitest agar, 10^4 CFU, 24 h, 37° C.
Experimental: as §1, §2, §3

in vivo = conditions: rat, po
Experimental: In Table 4 the percentage of urinary excretion of compound (h) is reported, as measured in the 24 hours successive to oral administration of the same to rats.
Each value is the average of three tested rats.
The tests have been performed in comparison with Ofloxacin, a well known antibacterial compound. The amount of excreted product has been determined with microbiological analysis, by using Klebsiella Pneumoniae as the testing microorganism.

bacteria [4] = experiment: antibacterial activity in vitro, overall; format: cell-based; conditions: in vitro, Table 1
Experimental: as §1, §2, §3

bacteria [5] = experiment: antibacterial characteristics tested in vivo
Pseudomonas aeruginosa = experiment: MIC in agar, Pseudomonas aeruginosa; format: cell-based; conditions: Isosensitest agar, 10^4 CFU, 24 h, 37° C., read-out: MIC, B = Pseudomonas aeruginosa
Experimental: as §1, §2, §3
B = P udomonas aeruginosa

Enterobacter = experiment: MIC in agar, Enterobacter; format: cell-based; conditions: Isosensitest agar, 10^4 CFU, 24 h, 37° C., read-out: MIC, F = Enterobacter
Experimental: as §1, §2, §3

[6] = tested on: Proteus Morgani (indole +); experiment: MIC in agar, Proteus Morgani (indole +); format: cell-based; conditions: Isosensitest agar, 10^4 CFU, 24 h, 37° C.; read-out: MIC, D = Proteus Morgani (indole +)
Experimental: as §1, §2, §3
D = Proteus Morgani (indole +)

[7] = heart, read-out: Tissue level, heart
[8] = kidney, read-out: Tissue level, kidney
[9] = liver, read-out: Tissue level, liver
[10] = plasma, read-out: Tissue levels table, plasma

CN1CCN(c2c(F)cc3c(=O)c(C(=O)O)cn4c3c2SCC4)CC1 [Compound (h), 9-Fluoro-10[N-(4'-methyl)-piperazinyl]-7-oxo-2,3-dihydro-7H-pyrido[1,2,3 de][1,4]benzothiazine-6-carboxylic acid]
plasma levels compared with rats [1]: sharply higher plasma levels | half-life ([1]; plasma, po): 24 h | Cmax ([1]; plasma, po, read-out: peak plasma level): 8000 ng/mL | concentration at 0.5 h [2, 7]: 20000 ng/mL | concentration at 1 h [2, 7]: 31400 ng/mL | concentration at 2 h [2, 7]: 21000 ng/mL | concentration at 4 h [2, 7]: 18100 ng/mL | concentration at 8 h [2, 7]: 9930 ng/mL | concentration at 15 h [2, 7]: 5350 ng/mL | concentration at 0.5 h [2, 8]: 32600 ng/mL | concentration at 1 h [2, 8]: 61200 ng/mL | concentration at 2 h [2, 8]: 50600 ng/mL | concentration at 4 h [2, 8]: 42400 ng/mL | concentration at 8 h [2, 8]: 17800 ng/mL | concentration at 15 h [2, 8]: 7950 ng/mL | concentration at 0.5 h [2, 9]: 63500 ng/mL | concentration at 1 h [2, 9]: 80400 ng/mL | concentration at 2 h [2, 9]: 58100 ng/mL | concentration at 4 h [2, 9]: 34100 ng/mL | concentration at 8 h [2, 9]: 21600 ng/mL | concentration at 15 h [2, 9]: 11300 ng/mL | concentration at 0.5 h [2, 10]: 8750 ng/mL | concentration at 1 h [2, 10]: 10100 ng/mL | concentration at 2 h [2, 10]: 9950 ng/mL | concentration at 4 h [2, 10]: 6370 ng/mL | concentration at 8 h [2, 10]: 4950 ng/mL | concentration at 15 h [2, 10]: 4290 ng/mL | Cmax ([2]; heart, read-out: mean tissue level at the moment of peak, heart): 31400 ng/mL | Cmax ([2]; liver, read-out: mean tissue level at the moment of peak, liver (first of two values printed for liver)): 61200 ng/mL | Cmax ([2]; liver, read-out: mean tissue level at the moment of peak, liver (second of two values printed for liver)): 80400 ng/mL | presence in brain ([2]; oral): No presence | Kp ([2]; oral, various organs, read-out: ratio of organ concentration with respect to the concentration in plasma): > 3 | Cmax ([2]; plasma, read-out: mean level at the moment of peak, plasma): 10100 ng/mL | concentration at 0.5 h ([3]; plasma, ip, 10 mg/kg i.p.): 2700 ng/mL | concentration at 1 h ([3]; plasma, ip, 10 mg/kg i.p.): 2530 ng/mL | concentration at 2 h ([3]; plasma, ip, 10 mg/kg i.p.): 2170 ng/mL | concentration at 4 h ([3]; plasma, ip, 10 mg/kg i.p.): 1830 ng/mL | concentration at 8 h ([3]; plasma, ip, 10 mg/kg i.p.): 1630 ng/mL | concentration at 0.5 h ([3]; plasma, ip, 25 mg/kg i.p.): 8350 ng/mL | concentration at 1 h ([3]; plasma, ip, 25 mg/kg i.p.): 6290 ng/mL | concentration at 2 h ([3]; plasma, ip, 25 mg/kg i.p.): 6440 ng/mL | concentration at 4 h ([3]; plasma, ip, 25 mg/kg i.p.): 5010 ng/mL | concentration at 8 h ([3]; plasma, ip, 25 mg/kg i.p.): 3720 ng/mL | concentration at 0.5 h ([3]; plasma, po, 25 mg/kg os): 5330 ng/mL | concentration at 1 h ([3]; plasma, po, 25 mg/kg os): 7300 ng/mL | concentration at 2 h ([3]; plasma, po, 25 mg/kg os): 5670 ng/mL | concentration at 4 h ([3]; plasma, po, 25 mg/kg os): 3600 ng/mL | concentration at 8 h ([3]; plasma, po, 25 mg/kg os): 3270 ng/mL | concentration at 15 h ([3]; plasma, po, 25 mg/kg os): 2730 ng/mL | concentration at 0.5 h ([3]; plasma, po, 50 mg/kg os): 8750 ng/mL | concentration at 1 h ([3]; plasma, po, 50 mg/kg os): 10100 ng/mL | concentration at 2 h ([3]; plasma, po, 50 mg/kg os): 9950 ng/mL | concentration at 4 h ([3]; plasma, po, 50 mg/kg os): 6370 ng/mL | concentration at 8 h ([3]; plasma, po, 50 mg/kg os): 4950 ng/mL | concentration at 15 h ([3]; plasma, po, 50 mg/kg os): 4290 ng/mL | concentration at 0.5 h ([3]; plasma, po, 100 mg/kg os): 12500 ng/mL | concentration at 1 h ([3]; plasma, po, 100 mg/kg os): 20600 ng/mL | concentration at 2 h ([3]; plasma, po, 100 mg/kg os): 22200 ng/mL | concentration at 4 h ([3]; plasma, po, 100 mg/kg os): 15900 ng/mL | concentration at 8 h ([3]; plasma, po, 100 mg/kg os): 13000 ng/mL | concentration at 15 h ([3]; plasma, po, 100 mg/kg os): 6220 ng/mL | half-life ([3]; plasma, deduced from Table 2, read-out: half-life time (converted)): 10 h | absorption per os and i.p. [3]: quickly absorbed | plasma levels induced [3]: high and long-lasting levels both in the plasma and in the various organs | MIC (Citrobacter): 1.56 µg/mL (≈ 4.29 µM) | MIC (Escherichia coli (981)): 0.78 µg/mL (≈ 2.15 µM) | MIC (Klebsiella pneumoniae): < 0.39 µg/mL | MIC (Staphylococcus aureus): 0.78 µg/mL (≈ 2.15 µM) | dose excreted at 24 h (in vivo; 20 mg/kg): 77.3 ± 6.81% | dose excreted at 24 h (in vivo; 50 mg/kg): 73 ± 4.58% | anti-bacterial activity in vitro (bacteria [4]): very good and comparable anti-bacterial activity | in vivo antibacterial characteristics (bacteria [5]): systemic antibacterial compound having long-lasting activity | MIC (Pseudomonas aeruginosa): > 50 µg/mL | MIC (Enterobacter): < 0.39 µg/mL | MIC [6]: 1.56 µg/mL (≈ 4.29 µM)
